Experimental data as given in ChEMBL document CHEMBL3044675, “Synthesis and Antifungal Activities of Some Novel Pyrimidine Derivatives” (2011).

Experiments:
Format in all cases: functional
Botrytis cinerea = assay: Antifungal activity against Botryotinia fuckeliana at 50 ug/ml by poisoned food technique
Fusarium fujikuroi = assay: Antifungal activity against Fusarium fujikuroi at 50 ug/ml by poisoned food technique
Alternaria kikuchiana = assay: Antifungal activity against Alternaria kikuchiana at 50 ug/ml by poisoned food technique
Alternaria solani = assay: Antifungal activity against Alternaria solani at 50 ug/ml by poisoned food technique
Sclerotinia sclerotiorum = assay: Antifungal activity against Sclerotinia sclerotiorum at 50 ug/ml by poisoned food technique
Ceratobasidium cereale = assay: Antifungal activity against Ceratobasidium cereale at 50 ug/ml by poisoned food technique
Rhizoctonia solani = assay: Antifungal activity against Rhizoctonia solani at 50 ug/ml by poisoned food technique
Alternaria mali = assay: Antifungal activity against Alternaria mali at 50 ug/ml by poisoned food technique
Phytophthora infestans = assay: Antifungal activity against Phytophthora infestans at 50 ug/ml by poisoned food technique
Fusarium graminearum = assay: Antifungal activity against Fusarium graminearum at 50 ug/ml by poisoned food technique
Mycosphaerella arachidis = assay: Antifungal activity against Mycosphaerella arachidis at 50 ug/ml by poisoned food technique
Thanatephorus cucumeris = assay: Antifungal activity against Thanatephorus cucumeris at 50 ug/ml by poisoned food technique
Bipolaris maydis = assay: Antifungal activity against Cochliobolus heterostrophus at 50 ug/ml by poisoned food technique
Macrophoma = assay: Antifungal activity against Macrophoma kuwatsukai at 50 ug/ml by poisoned food technique

Row | Structure (SMILES) | Activity (Botrytis cinerea) | Activity (Fusarium fujikuroi) | Activity (Alternaria kikuchiana) | Activity (Alternaria solani) | Activity (Sclerotinia sclerotiorum) | Activity (Ceratobasidium cereale) | Activity (Rhizoctonia solani) | Activity (Alternaria mali) | Activity (Phytophthora infestans) | Activity (Fusarium graminearum) | Activity (Mycosphaerella arachidis) | Activity (Thanatephorus cucumeris) | Activity (Bipolaris maydis) | Activity (Macrophoma)
1 | Cc1cc(OC(=O)N2CCOCC2)nc(C(C)C)n1 | 18.5% | 6.7% | 40.9% | 0% | 0% | 20% | 61.9% | 0% | 0% | 7.4% | 6.7% | 19.6% | 17.4% | 31.3%
2 | COc1cc(OC)nc(NCc2ccc(Cl)nc2)n1 | 40.7% | 20% | 18.2% | 0% | 20% | 5% | 54% | 0% | 9.1% | 0% | 0% | 2% | 17.4% | 46.9%
3 | Cc1cc(NC2CCCCC2)nc(C(C)C)n1 | 3.7% | 13.3% | 27.3% | 0% | 33.3% | 0% | 55.6% | 21.4% | 36.4% | 22.2% | 46.7% | 52.9% | 13% | 0%
4 | COC(=O)Nc1nc2ccccc2[nH]1 [CARBENDAZIM] | 63% | 60% | 81.8% | 76.5% | 73.3% | 100% | 100% | 78.6% | 27.3% | 59.3% | 53.3% | 98% | 69.6% | 43.8%
5 | Cc1cc(OCc2cnc(Cl)s2)nc(C(C)C)n1 | 7.4% | 20% | 18.2% | 0% | 0% | 30% | 61.9% | 0% | 0% | 14.8% | 0% | 3.9% | 17.4% | 31.3%
6 | Cc1cc(Nc2ccccc2)nc(C(C)C)n1 | 7.4% | 0% | 27.3% | 11.8% | 0% | 5% | 57.1% | 21.4% | 0% | 7.4% | 33.3% | 39.2% | 26.1% | 21.9%
7 | Cc1cc(C)nc(Nc2ccccc2)n1 [PYRIMETHANIL] | 96.3% | 20% | 100% | 100% | 86.7% | 40% | 77.8% | 21.4% | 22.7% | 44.4% | 100% | 98% | 91.3% | 100%
8 | Cc1cc(OC(=O)c2ccc(F)cc2)nc(C(C)C)n1 | 14.8% | 46.7% | 27.3% | 0% | 40% | 0% | 55.6% | 21.4% | 18.2% |  | 0% | 15.7% | 13% | 46.9%
9 | COc1cc(C(=O)Oc2cc(C)nc(C(C)C)n2)cc(OC)c1OC | 14.8% | 20% | 31.8% | 0% | 66.7% | 15% | 63.5% | 28.6% |  |  | 6.7% | 9.8% | 26.1% | 40.6%
10 | COc1cc(OC)nc(NCc2cnc(Cl)s2)n1 | 37% | 26.7% | 31.8% | 5.9% | 0% | 5% | 60.3% | 21.4% | 0% | 29.6% | 13.3% | 2% | 17.4% | 46.9%
11 | Cc1cc(O)no1 [HYMEXAZOL] | 70.4% | 40% | 81.8% | 88.2% | 66.7% | 25% | 63.5% | 85.7% | 36.4% | 33.3% | 93.3% | 78.4% | 34.8% | 50%
12 | COc1ccc(/C(=C\C(=O)N2CCOCC2)c2ccc(F)cc2)cc1OC [FLUMORPH] | 7.4% | 13.3% | 18.2% | 0% | 0% | 20% | 61.9% | 21.4% | 4.5% | 7.4% | 0% | 9.8% | 17.4% | 21.9%
13 | COc1ccc(C(=CC(=O)N2CCOCC2)c2ccc(Cl)cc2)cc1OC [DIMETHOMORPH] | 18.5% | 20% | 22.7% | 5.9% | 20% | 40% | 68.3% | 7.1% | 9.1% | 0% | 0% | 23.5% | 17.4% | 6.3%
14 | Cc1cc(Nc2ccc(OC(F)(F)F)cc2)nc(C(C)C)n1 | 25.9% | 40% | 63.6% | 35.3% | 0% | 25% | 66.7% | 50% | 36.4% | 44.4% | 46.7% | 76.5% | 39.1% | 25%
15 | Cc1cc(OCc2ccc(Cl)nc2)nc(C(C)C)n1 | 29.6% | 20% | 45.5% | 41.2% | 0% | 35% | 63.5% | 21.4% | 22.7% | 25.9% | 13.3% | 80.4% | 34.8% | 31.3%
16 | Cc1cc(OC(=O)c2ccc(Cl)cc2)nc(C(C)C)n1 | 33.3% | 53.3% | 22.7% | 0% | 60% | 0% | 61.9% | 21.4% | 13.6% | 40.7% | 6.7% | 0% | 26.1% | 37.5%
